According to US4587342A, “2,4-diamino-(substituted-benzopyran(quinolyl,isoquinoly)methyl)pyrimidine s useful as antibacterials” (priority 1980, dated 1986):
≈ marks a conversion by molar mass, not a printed value. Entries after “also recorded” stand apart in the source; their conditions may differ.

Tests used:
St. faecalis CN478 = assay: MIC against St. faecalis CN478 in vitro; assay type: cell-based; conditions: Enterococcus faecalis, read-out: Minimum Inhibitory Concentration (MIC)
Text: (§1) The compounds of the present invention were subjected to standard tests in order to determine the minimum inhibitory concentration in μg/ml needed to inhibit a range of bacterial microorganisms in-vitro.

St. agalactiae CN1143 = assay: MIC against St. agalactiae CN1143 in vitro; assay type: cell-based; conditions: Streptococcus agalactiae, read-out: Minimum Inhibitory Concentration (MIC)
Text: as §1

Staph. aureus CN491 = assay: MIC against Staph. aureus CN491 in vitro; assay type: cell-based; conditions: Staphylococcus aureus, read-out: Minimum Inhibitory Concentration (MIC)
Text: as §1

[1] = system: Vibrio cholerae ATCC14035; assay: MIC against Vibrio cholerae ATCC14035 in vitro; assay type: cell-based; conditions: ATCC14035, read-out: Minimum Inhibitory Concentration (MIC)
Text: as §1

Esch. coli CN314 = assay: MIC against Esch. coli CN314 in vitro; assay type: cell-based; conditions: Escherichia coli, read-out: Minimum Inhibitory Concentration (MIC)
Text: as §1

Pr. mirabilis S2409 = assay: MIC against Pr. mirabilis S2409 in vitro; assay type: cell-based; conditions: Proteus mirabilis, read-out: Minimum Inhibitory Concentration (MIC)
Text: as §1

Meningococci = assay: MIC against Meningococci in vitro; assay type: cell-based; conditions: Meningococci (average 5 strains); read-out: Minimum Inhibitory Concentration (MIC)
Text: as §1

Gonococci = assay: MIC against Gonococci in vitro; assay type: cell-based; conditions: Gonococci (average 17 strains); read-out: Minimum Inhibitory Concentration (MIC)
Text: as §1

B. fragilis = assay: MIC against B. fragilis in vitro; assay type: cell-based; conditions: Bacteroides fragilis; B. fragilis (average 3-10 strains); read-out: Minimum Inhibitory Concentration (MIC)
Text: as §1

Acute toxicity in mouse = conditions: in vivo, ip; i.p. mouse
Acute toxicity in rat = conditions: in vivo, po; p.o. rat
[2] = system: four individual gram negative microorganisms and one isolate of S. aureus; assay: Checkerboard potentiation study with SMX, overall; assay type: cell-based; conditions: words
Protocol: 2. Compound Preparation. Compound 1, trimethoprim (TMP) and SMX were each treated with N,N-dimethylformamide for 30 minutes. Dilutions were prepared using sterile distilled water.
3. Testing procedure. Two checkerboard patterns were set-up, namely: 1. SMX and TMP-lactate and 2. SMX and compound 1-lactate. Thirteen, two-fold dilutions of compound 1-lactate were prepared with final concentrations ranging from 6.2 ug/ml to 0.0016 ug/ml. Twenty two, two-fold dilutions of SMX were prepared with final plate concentrations ranging from 31 ug/ml to 0.000016 ug/ml. An analogous checkerboard scheme was set-up for the combination TMP and SMX. Microorganisms were grown on Wellcotest Sensitivity Test Agar containing various concentrations and permutations of compounds.
From the MIC's, a fractional inhibitory concentration (FIC) was calculated. This involves determining a fraction by dividing the MIC of an agent in combination over the MIC of the agent alone (1). If it is less than one, the interaction is synergistic, and if the sum is greater than one, the combination is antagonistic.

Salmonella dublin [3] = assay: Experimental salmonellosis in calves; assay type: in vivo; conditions: for Mortality: 5 days from two days after infection, deaths/calves
Salmonella dublin [4] = conditions: even at 40 mg/kg/day; cited from earlier work

Row | Compound | MIC (St. faecalis CN478) | MIC (St. agalactiae CN1143) | MIC (Staph. aureus CN491) | MIC [1] | MIC (Esch. coli CN314) | MIC (Pr. mirabilis S2409) | MIC (Meningococci) | MIC (Gonococci) | MIC (B. fragilis) | LD50 (Acute toxicity in mouse) | LD50 (Acute toxicity in rat) | in vitro potentiation with SMX [2] | Mortality (Salmonella dublin [3]; 0.5 mg/kg daily plus SDZ 20 mg/kg) | reduction of mortality, in words (Salmonella dublin [3]; 0.5 mg/kg plus SDZ 20 mg/kg, in comparison with TMP 1 mg/kg) | Mortality (Salmonella dublin [3]; 1 mg/kg daily plus SDZ 20 mg/kg) | efficacy relative to TMP (Salmonella dublin [3]; 1 mg/kg each, plus SDZ 20 mg/kg) | recovery of the survivors (Salmonella dublin [3]; 1 mg/kg plus SDZ 20 mg/kg, in comparison with TMP 1 mg/kg (group 1)) | effectiveness relative to TMP (Salmonella dublin [3]; with SDZ 20 mg/kg, conclusion from all groups) | effect on mortality, SDZ alone (Salmonella dublin [4])
1 | COc1cc(Cc2cnc(N)nc2N)c2c(c1OC)OCC=C2 [Compound 1, 2,4-Diamino-5-(7,8-dimethoxy-2 --H--1-benzopyran-5-ylmethyl)-pyrimidine] | 0.05 µg/mL (≈ 0.159 µM) | 0.05 µg/mL (≈ 0.159 µM) | 0.05 µg/mL (≈ 0.159 µM) | 0.05 µg/mL (≈ 0.159 µM) | 0.05 µg/mL (≈ 0.159 µM) | 5 µg/mL (≈ 15.9 µM) | 3.1 µg/mL (≈ 9.86 µM) | 10 µg/mL (≈ 31.8 µM) | 1.08 µg/mL (≈ 3.44 µM) | 610 mg/kg | > 1000 mg/kg | SMX appears to potentiate compound 1 as well as it does TMP; also recorded: in vitro potentation can be demonstrated between SMX and compound 1 in the case of four individual gram negative microorganisms and one isolate of S. aureus | 3/7 | produced a reduction of mortality comparable with that in group 1 (TMP, 1 mg/kg) | 0/6 | clearly superior to TMP at 1 mg/kg | much more rapid recovery of the survivors in group 2 | approximately twice as effective as TMP in this disease syndrome | 
2 | Nc1ccc(S(=O)(=O)Nc2ncccn2)cc1 [SDZ] |  |  |  |  |  |  |  |  |  |  |  |  |  |  |  |  |  |  | no effect on mortality in this disease model
